Source: ChEMBL document CHEMBL1201862, “PubChem BioAssay data set” (2004)
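Growth conditions: 96-well plates. Treatment: test compound, 48 hours, 5 concentrations. Analysis: linear interpolation between bracketing concentrations; unreached endpoints set to highest concentration. GI50 = concentration required for 50% inhibition of growth.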 Calls of active or inactive are those of the source. Rule as the data show it: active = GI50 up to about 1.1 µM and inactive = higher.

Key:
Assay in all cases: DTP human tumour cell line panel, 48 h
HT-29 = tested on: HT-29
UACC-257 = tested on: UACC-257
OVCAR-3 = tested on: OVCAR-3
HCC 2998 = tested on: HCC 2998
A549 = tested on: A549
NCI-H23 = tested on: NCI-H23
SNB-75 = tested on: SNB-75
HCT-15 = tested on: HCT-15
SN12C = tested on: SN12C
EKVX = tested on: EKVX
SNB-19 = tested on: SNB-19
Malme-3M = tested on: Malme-3M
NCI-H460 = tested on: NCI-H460
CCRF-CEM = tested on: CCRF-CEM
HOP-62 = tested on: HOP-62
SF-539 = tested on: SF-539
RPMI-8226 = tested on: RPMI-8226
NCI-H522 = tested on: NCI-H522

Compound	GI50 (HT-29)	GI50 (UACC-257)	GI50 (OVCAR-3)	GI50 (HCC 2998)	GI50 (A549)	GI50 (NCI-H23)	GI50 (SNB-75)	GI50 (HCT-15)	GI50 (SN12C)	GI50 (EKVX)	GI50 (SNB-19)	GI50 (Malme-3M)	GI50 (NCI-H460)	GI50 (CCRF-CEM)	GI50 (HOP-62)	GI50 (SF-539)	GI50 (RPMI-8226)	GI50 (NCI-H522)
CCOC(=O)NC(C(=O)OCC)C(F)(F)F (configuration not stated)	> 100 µM (inactive)	> 100 µM (inactive)	> 100 µM (inactive)	> 100 µM (inactive)	> 100 µM (inactive)	> 100 µM (inactive)	> 100 µM (inactive)	> 100 µM	> 100 µM (inactive)	> 100 µM (inactive)	> 100 µM (inactive)	> 100 µM (inactive)	> 100 µM (inactive)	40.6 µM (inactive)	> 100 µM (inactive)	37.4 µM (inactive)	57 µM (inactive)	
CC1=C(C(=O)Nc2ccccc2C)C(c2ccc(N(C)C)cc2)C(C(=O)Nc2ccccc2C)=C(C)N1	> 100 µM (inactive)	71.6 µM (inactive)	> 100 µM (inactive)	34.5 µM (inactive)	94 µM (inactive)	58.7 µM (inactive)		67.9 µM	83.6 µM (inactive)	> 100 µM (inactive)	> 100 µM (inactive)	82.6 µM (inactive)	63.8 µM (inactive)	31.8 µM (inactive)	28.6 µM (inactive)	> 100 µM (inactive)	17.1 µM (inactive)	37.8 µM (inactive)
Nc1nc(N)c(-c2ccccc2)c(C(=O)Nc2ccccc2)n1	> 100 µM (inactive)	> 100 µM (inactive)	> 100 µM (inactive)		> 100 µM (inactive)	> 100 µM (inactive)	> 100 µM (inactive)	> 100 µM	> 100 µM (inactive)	> 100 µM (inactive)	> 100 µM (inactive)	> 100 µM (inactive)	> 100 µM (inactive)	> 100 µM (inactive)		> 100 µM (inactive)	> 100 µM (inactive)	> 100 µM (inactive)
CC(C)(C)C1CC[C@H]2c3c([nH]c4ccccc34)[C@H]3C(=O)N(c4ccc(F)cc4)C(=O)[C@H]3[C@H]2C1 (some centres not stated)		22.6 µM (inactive)	16.7 µM (inactive)	13.6 µM (inactive)	12 µM (inactive)	18.6 µM (inactive)	10.5 µM (inactive)	20.7 µM	11.1 µM (inactive)	16.3 µM (inactive)	15.9 µM (inactive)	16.9 µM (inactive)	13.6 µM (inactive)	16.7 µM (inactive)	16.5 µM (inactive)	18.9 µM (inactive)		12.4 µM (inactive)
Nc1ccc(C(=O)NN2C(=O)C(Cl)C2c2cc(Br)cc(Br)c2O)cc1 (configuration not stated)	34.9 µM (inactive)	7.67 µM (inactive)	2.43 µM (inactive)	16.8 µM (inactive)	14.3 µM (inactive)	12.4 µM (inactive)	18 µM (inactive)	3.78 µM		4.62 µM (inactive)	34.1 µM (inactive)	17.3 µM (inactive)	3.4 µM (inactive)	5.53 µM (inactive)	12.1 µM (inactive)	12.8 µM (inactive)	> 100 µM (inactive)	6.75 µM (inactive)
COc1ccc2c3c([nH]c2c1[N+](=O)[O-])C(C)N(C(=O)/C=C/c1ccccc1)CC3 (configuration not stated)	3.89 µM (inactive)	3.83 µM (inactive)	4.8 µM (inactive)	21.5 µM (inactive)	14.3 µM (inactive)	25.5 µM (inactive)		5.71 µM	41.2 µM (inactive)	16.6 µM (inactive)	36.9 µM (inactive)		2.96 µM (inactive)	3.29 µM (inactive)	5.28 µM (inactive)	10.8 µM (inactive)	2.78 µM (inactive)	2.9 µM (inactive)
CC(C)CCCC(C)C1CCC2C3CC([N+](=O)[O-])=C4CC(O)CCC4(C)C3CCC12C (configuration not stated)	17.9 µM (inactive)	10.8 µM (inactive)	23.9 µM (inactive)	20.2 µM (inactive)	23.2 µM (inactive)	22.7 µM (inactive)	17.1 µM (inactive)	17.3 µM	18.2 µM (inactive)	27 µM (inactive)		19.8 µM (inactive)		18.2 µM (inactive)	19.9 µM (inactive)	11.5 µM (inactive)	5.02 µM (inactive)	17.5 µM (inactive)
O=C(O/N=C1/CCC/C1=C\c1ccccc1)c1ccc(Cl)c(Cl)c1	> 100 µM (inactive)	> 100 µM (inactive)	> 100 µM (inactive)	> 100 µM (inactive)	> 100 µM (inactive)	> 100 µM (inactive)	> 100 µM (inactive)	> 100 µM	> 100 µM (inactive)	> 100 µM (inactive)		> 100 µM (inactive)	> 100 µM (inactive)	> 100 µM (inactive)	> 100 µM (inactive)	> 100 µM (inactive)	> 100 µM (inactive)	> 100 µM (inactive)
